Laboratory results published in US20220339135A1, “COMPOSITIONS AND METHODS FOR MODULATING AN INFLAMMATORY RESPONSE” (Enzychem Lifesciences Corporation, priority 2019, published 2022).

Columns and labels:
skin erythema injury = assay: Radiation-induced skin erythema in mice; type: in vivo; settings: 8Gy TBI, PLAG 250 mg/kg daily 17 days
Procedure: 9 weeks Balb/c mice were divided into two groups: 1) radiated group (8Gy of TBI by γ-ray) and 2) PLAG (250 mg/kg of PLAG daily for 17 days) administrated group with radiation (8Gy of TBI) (FIG. 38A).

[1] = test system: total body irradiation by γ-ray; assay: Survival rate and body weight of γ-ray radiated mice; type: in vivo
Procedure: 11 weeks Balb/c mice (10 males and 10 females) were divided into two groups: 1) radiated group (6.5Gy of TBI by γ-ray) and 2) PLAG (250 mg/kg of PLAG) administrated group with radiation (6.5Gy of TBI by γ-ray) (FIG. 39A). 6.5Gy of TBI was radiated on Day 0 and 250 mpk of PLAG was orally administrated from day 0 to day 30 daily. The survival rate of the mice was recorded daily until day 30.
(§1) 11 weeks Balb/c mice (10 males and 10 females) were divided into four groups: 1) radiated group (6.11Gy of TBI by γ-ray), 2) PLAG (10 mg/kg of PLAG) administrated group with radiation (6.11Gy of TBI by γ-ray), 3) PLAG (50 mg/kg of PLAG) administrated group with radiation (6.11Gy of TBI by γ-ray), and 4) PLAG (250 mg/kg of PLAG) administrated group with radiation (6.11Gy of TBI by γ-ray) (FIG. 40A). 6.11Gy of TBI was radiated on Day 0 and […] of PLAG was orally administrated from day 1 to day 30 daily. The survival rate of the mice, was recorded daily until day 30.
as §1, with “by γ-ray).” for “by γ-ray) (FIG. 40A).”, “Day 0,” for “Day 0”, “daily. Body weight” for “daily. The survival rate”, “the mice” for “the mice,”

[2] = PLAG uptake in the cisterna chyli (TG colorimetric assay); type: in vivo, mice
Procedure: Balb/c mice were purchased from Koatech Co. (Pyungtaek, Republic of Korea) and maintained under specific pathogen-free conditions. All animal experimental procedures were performed in accordance with the Guide for the Care and Use of Laboratory Animals. The study included 30 male Balb/c mice (mean age: 9 weeks, range: 8 to 10 weeks). For the time point study (experiment 1), mice were divided into 5 groups, with 3 mice per group. Mice were given a single administration of PLAG orally (2500 mg/kg BW) in a volume of 150 μL. And then mice are sacrificed after various time intervals, 0, 15, 30 and 60 minutes. To determine the difference in PLAG concentration (experiment 2), mice were divided into 5 groups, with 3 mice per group. They were given a single administration of PLAG orally (50, 250, 500, and 2500 mg/kg BW) in a volume of 150 μL, then sacrificed after 1 h post-injection.
The blood sample was obtained under anesthesia by heart puncture. Serum samples were separated by centrifuge 3,000 rpm for 10 minutes and stored at −80° C. for analysis. Lymph fluid from the cisterna chyli was collected according to the methods described by Masayuki, lymph fluid in cisterna chyli appears milky white color with a high concentration of triglyceride (TG) and located along the abdominal vena cava and aorta on the cranial side of the renal vein. A 30 ½-gauge syringe was carefully inserted into cisterna chyli. Then recovered the lymphatic fluid, diluted liquid with 10 uL of phosphate-buffered saline (Welgene, Gyeongsangbuk-do, Republic of Korea). Diluted lymph fluid samples were kept frozen for assay.
Triglyceride in blood and lymph fluid was measured using a commercial assay kit (Wako Diagnostics, Osaka, Japan). Because PLAG has structural similarities to TGs containing glycerol backbone, this method may be applicable to PLAG detection. Multi calibrator lipids (Wako) were used for standard reagent. The absorbance was read at 650 nm using an ELISA microplate reader (Molecular Devices Corporation).
2500mpk of PLAG was orally administered to diet mice whose body weight is 25 g, absorbed PLAG was collected from cisterna chyli at 1 hr. Absorbed PLAG was evaluated by TG colorimetric assay. The TG concentration was multiplied by the dilution factor and the conversion factor, which is the coefficient required to convert to triglyceride concentration to the PLAG concentration. Administered 62.5 mg of PLAG was absorbed through enterocytes and detected 28.2 mg of PLAG at cisterna chyli within 1 hour with about 50% of absorptive efficacy (FIG. 21E).

HMGB1 and S100A9 = assay: Radiation-induced DAMP molecules in mice serum, western blot; type: in vivo; settings: 6.11Gy, PLAG 50, 250 mg/kg oral 3 days
Procedure: The total-body of mice were irradiated with a gamma-ray of 6.11Gy on day 0. After that, the body weight of 1 day was measured and divided into 3 groups according to the average. PLAG (50, 250 mg/kg) or PBS was orally administered for 3 days from 1 day and sacrificed on the 3rd day. Add 3 ul serum to 97 ul of 1×SDS sample buffer and boiled for 10 min. Proteins from each sample were separated by sodium dodecyl sulfate-polyacrylamide gel electrophoresis on 8% polyacrylamide gels and the proteins were blotted onto a PVDF membrane (Millipore Corporation, Germany). The membrane was blocked with 5% non-fat dried milk (BD bioscience) in PBS containing 0.05% Tween-20 (Calbiochem) for 1 h. The membrane was incubated with anti-HMGB1 (abcam), anti-MRP14 (abcam) at 4° C. overnight. After washing with PBS containing 0.05% Tween-20, the membrane was stained with goat anti-rabbit IgG peroxidase (ENZO). Target proteins were detected with Immobilon Western Chemiluminescent HRP Substrate (Millipore Corporation).

[3] = test system: MIP-2 and IFN-β in LPS treated macrophage cells; assay: MIP-2 and IFN-β in LPS treated macrophage cells; type: cell-based

Structure (SMILES): CCCCC/C=C\C/C=C\CCCCCCCC(=O)OC(COC(C)=O)COC(=O)CCCCCCCCCCCCCCC (racemic) [PLAG, 1-palmitoyl-2-linoleoyl-3-acetylglycerol]
- erythema on mouse foot and tail (skin erythema injury): significantly weak or no erythema
- number of mice whose body weight loss is more than 10% and 20% ([1]; 6.11Gy TBI, 50mpk and 250 mpk): significantly less number
- body weight after radiation ([1]; 6.11Gy TBI, PLAG 10 mg/kg): fluctuating and decreasing bodyweight
- survival rate after 30 days of radiation ([1]; 6.11Gy TBI, PLAG 10 mg/kg): 5%
- body weight loss ([1]; 6.11Gy TBI, PLAG 50 mg/kg): less than 10%
- survival rate after 30 days of radiation ([1]; 6.11Gy TBI, PLAG 50 mg/kg): 40%
- body weight loss ([1]; 6.11Gy TBI, PLAG 250 mg/kg): less than 10%
- survival rate after 30 days of radiation ([1]; 6.11Gy TBI, PLAG 250 mg/kg): 80%
- survival rate relative to the radiated group ([1]; 6.5Gy TBI, PLAG 250 mg/kg): 12 times
- survival rate 30 days after radiation ([1]; 6.5Gy TBI, PLAG 250 mg/kg daily day 0-30): 60%
- PLAG detected at cisterna chyli / lymph fluid ([2]; 62.5 mg administered (2500mpk, 25 g mice), 1 hr): 28.2 mg
- time absorbed PLAG observed at the cisterna chyli ([2]; 50, 250, 500, 2500mpk, dose-dependent): ≤ 1 h
- time PLAG detected in cisterna chyli ([2]; 2500mpk, mice fasted 6 hours): 60 min
- absorptive efficacy ([2]; cisterna chyli within 1 hour): about 50%
- level of HMGB1 and S100A9 induced by radiation (HMGB1 and S100A9): significantly decreased
- modulation of chemokine MIP-2 in silenced cell ([3]; LPL or GPIHBP1 silenced cell): not capable of modulating
- chemokine MIP-2 and cytokine IFN-β ([3]; LPS treated macrophage cells): effectively down-regulates
